Measurements published in patent EP0406297B1, “Medical use of neuropeptide Antagonist G” (IMPERIAL CANCER RESEARCH TECHNOLOGY LIMITED, priority 1988, dated 1996).
Residues, ends and D or L forms follow the SMILES beside them.

Columns and labels:
Swiss 3T3 cells [1] = conditions: cited from earlier work
vasopressin receptor = conditions: Swiss 3T3 cells; cited from earlier work
Swiss 3T3 cells [2] = conditions: for IC50: read-out: IC50 for inhibition of mitogenesis induced by bradykinin, 9.4 nM bradykinin, 1 µg/ml insulin
[3] = test system: small cell lung cancer (SCLC) cell line; assay: growth in vitro of small cell lung cancer cell lines; format: cell-based
Protocol: The ability of antagonists A, D and G to inhibit the growth in vitro of a small cell lung cancer (SCLC) cell line was tested. The cell lines used were • a) H69 and H128 from the ATCC in Maryland USA; • b) H209, H345 and H510A obtained from Dr. A. Gazdar at NCI, NIH, Maryland USA; • c) UCH25 from Dr. P. Beverley, University College, London, England.

SCLC cell lines = assay: calcium mobilisation tests in SCLC cell lines; format: cell-based; conditions: 20 µM
Protocol: These responses can be blocked by 20 µM antagonist D in 3 of 3 lines tested (H69, H345, H510A) and by 20 µM antagonist G in H510A.

Swiss 3T3 cells [4] = conditions: earlier patent application and references 10, 11; cited from earlier work
Swiss 3T3 cells [5] = assay: specificity: DNA synthesis with a variety of other mitogens in Swiss 3T3 cells; format: cell-based, murine
Swiss 3T3 cells [6] = assay: vasopressin-stimulated DNA synthesis in Swiss 3T3 cells; format: cell-based, murine
Swiss 3T3 cells [7] = assay: GRP-induced DNA synthesis ([3H]thymidine incorporation) in quiescent Swiss 3T3 cells; format: cell-based, murine
bombesin receptor = conditions: Swiss 3T3 cells; cited from earlier work

For `CC(C)C[C@H](NC(=O)[C@H](CC(C)C)NC(=O)[C@@H](Cc1c[nH]c2ccccc12)NC(=O)[C@H](Cc1ccccc1)NC(=O)[C@@H](Cc1c[nH]c2ccccc12)NC(=O)[C@H](CCC(N)=O)NC(=O)[C@H](CCC(N)=O)NC(=O)[C@@H]1CCCN1C(=O)[C@H](CCCCN)NC(=O)[C@H]1CCCN1C(=O)[C@H](N)CCCNC(=N)N)C(N)=O` [antagonist A, D-Arg-D-Pro-Lys-Pro-Gln-Gln-D-Trp-Phe-D-Trp-Leu-Leu-NH2] (HELM PEPTIDE1{[dR].[dP].K.P.Q.Q.[dW].F.[dW].L.L.[am]}$$$$V2.0), the “inhibition of vasopressin-stimulated DNA synthesis” value (Swiss 3T3 cells [1]) is listed as “inhibit”, the “inhibition of [3H]vasopressin binding” value (vasopressin receptor) is listed as “inhibit” and the IC50 (Swiss 3T3 cells [2]) is listed as 90 µM. The “concentrations effective in inhibiting growth of SCLC” value ([3]; H69, H82, H128, H417 and UCH25) was 50 to 150 µM and the “cell lines in which growth inhibition was found, of cell lines tested” value ([3]; SCLC cell lines) was 5 of 5.
For `CC(C)C[C@H](NC(=O)[C@H](CC(C)C)NC(=O)[C@@H](Cc1c[nH]c2ccccc12)NC(=O)[C@H](Cc1ccccc1)NC(=O)[C@@H](Cc1c[nH]c2ccccc12)NC(=O)[C@H](CCC(N)=O)NC(=O)[C@@H](Cc1ccccc1)NC(=O)[C@@H]1CCCN1C(=O)[C@H](CCCCN)NC(=O)[C@@H]1CCCN1C(=O)[C@H](N)CCCNC(=N)N)C(N)=O` [antagonist D, D-Arg-Pro-Lys-Pro-D-Phe-Gln-D-Trp-Phe-D-Trp-Leu-Leu-NH2] (HELM PEPTIDE1{[dR].P.K.P.[dF].Q.[dW].F.[dW].L.L.[am]}$$$$V2.0), the “SCLC lines in which the Ca2+ responses were blocked, of lines tested” value (SCLC cell lines) is given as 3 of 3, the “transient elevation of intracellular [Ca2+] in response to bradykinin, GRP and vasopressin” value (SCLC cell lines; H69, H345, H510A) is given as “blocked” and the “potency as bombesin antagonist relative to antagonist A” value (Swiss 3T3 cells [4]) is given as 5-10 fold. The “inhibition of vasopressin-stimulated DNA synthesis” value (Swiss 3T3 cells [1]) was “inhibit”, the “inhibition of [3H]vasopressin binding” value (vasopressin receptor) was “inhibit” and the IC50 (Swiss 3T3 cells [2]) was 8.3 µM. For the same compound, the “potency in inhibiting growth of SCLC relative to Antagonist A” value [3] was 5-10 fold, the “cell lines in which growth inhibition was found, of cell lines tested” value ([3]; SCLC cell lines) was 6 of 6 and the “concentration that abolishes cell growth” value ([3]; SCLC cell lines) was 40 to 50 µM. For the same compound, the “inhibition of mitogenesis stimulated by EGF, PDGF, phorbol dibutyrate, cholera toxin and 8-bromo-cAMP” value (Swiss 3T3 cells [5]) was “Neither of them inhibited”, the “effect against various bombesin-like peptides (DNA synthesis)” value (Swiss 3T3 cells [5]; GRP 3.6 nM, bombesin 1.2 nM, litorin 1.8 nM, 20 µM antagonist D or 1 µM LψLB) was “effective” and the “inhibition of mitogenesis stimulated by VIP” value (Swiss 3T3 cells [5]; VIP 3.0 nM, 20 µM antagonist D or 1 µM LψLB) was “Neither antagonist D nor [Leu^13-ψ(CH2NH)Leu^14]bombesin inhibited”. The “increase in potency against each mitogen relative to antagonist A” value (Swiss 3T3 cells [5]; mitogens bombesin/GRP, bradykinin, vasopressin) was 5-10 fold and the “inhibition of vasopressin-induced DNA synthesis” value (Swiss 3T3 cells [6]; 20 µM antagonist D, LψLB at concentrations that strongly inhibited GRP-induced mitogenesis (1 µM)) was “potent inhibitor”.
With `CSCC[C@H](NC(=O)[C@H](CC(C)C)NC(=O)[C@@H](Cc1c[nH]c2ccccc12)NC(=O)[C@H](Cc1ccccc1)N(C)C(=O)[C@@H](Cc1c[nH]c2ccccc12)NC(=O)[C@@H](N)CCCNC(=N)N)C(N)=O` [antagonist G, Arg.D-Trp.MePhe.D-Trp-Leu-Met-NH2] (HELM PEPTIDE1{R.[dW].[meF].[dW].L.M.[am]}$$$$V2.0) the “transient elevation of intracellular [Ca2+] in response to bradykinin, GRP and vasopressin” value (SCLC cell lines; H510A) was “blocked”, the “potency as antagonist of growth induced by bradykinin, compared with Antagonist D” value (Swiss 3T3 cells [2]; Swiss 3T3 cells) was “less potent” and the “inhibition of growth in SCLC cells, compared with antagonist D” value ([3]; H69, H209, H345 and H510A) was “equipotent with antagonist D”. The “cell lines in which growth inhibition was found, of cell lines tested” value ([3]; SCLC cell lines) was 4 of 4, the “potency as antagonist of growth induced by GRP, compared with Antagonist D” value (Swiss 3T3 cells [7]) was “less potent” and the “potency as antagonist of vasopressin induced cell growth, compared with Antagonist D” value (Swiss 3T3 cells [6]; Swiss 3T3 cells) was “as potent as Antagonist D”.
In the case of “Arg-Pro-Lys-Pro-Gln-Gln-Phe-Phe-Gly-Leu-Met-NH2 [substance P]”, the “binding of [125I]GRP” value (bombesin receptor) is listed as “neither inhibits”.
